Assay results from patent US20230332103A1, “Methods and Compositions for Generating Human Forebrain Neural Progenitor Cells and for Maturation Thereof to Parvalbumin+ Interneurons” (Trailhead Biosystems Inc., priority 2021, published 2023).
Values joined by “and” are separate entries in the source; they are usually repeats but may differ in a detail not shown here. Equal values may be shown once. “Also recorded” adds a separate entry of the source. Where no end group is shown, it is not given here.

Legend:
Assay type in all cases: cell-based, human
MGE progenitor cells [1] = assay: HD-DoE 12-factor experiment for stage 4 recipe, optimized for MEF2C; conditions: for impact on expression of MEF2C: dynamic profile analysis, FIG. 20
Description: These effectors are small molecules or proteins. They are commonly used during stepwise differentiation of stem cells to specific fates. The choice of the effectors was based on current literature on neural induction in forebrain region of developing brain and differentiation of stem cells to neural progenitors.
To evaluate the effectors, experiments with at least 8 factors were designed that can assess the response of cells to 48 or more different combinations of effectors in a range of concentrations. To analyze the models, we focused on expression of genes involved in development and patterning of the forebrain interneurons maturation including LHX6 (Yuan et al. (2018) Elife, 7:e37382), DLX5 (Wang et al. (2010) J. Neuroscience 30:5334-5345), ASCL1 (Shi et al. (2016) J. Biol. Chem. 291:13560-13570). At later stages we focused on interneuron maturation genes including Parvalbumin and absence of somatostatin (Horn and Nicoll (2018) Proc. Natl. Acad. Sci. 115:589-594). The impacts of each effector on gene expression level are defined by a parameter called factor contribution that is calculated for each effector during the modeling.
To identify the recipe of stage 4 of differentiation, 48 different combinations of effectors generated using Design-of-Experiments compression through D-optimality were robotically prepared. The effector combinations were prepared in a basal media and were subsequently added to the cells, which were then allowed to differentiate. Three days later RNA extraction was performed, and gene expression was obtained using quantitative PCR analysis. The data was normalized and modeled using partial least squares regression analysis to the effector design, resulting in the generation of gene-specific models, which after model tuning for maximal predictive power, provided explanation of the effectors ability to control the expression of individual genes, combinatorically, and individually. Solutions within the tested space could then be explored to address desirability. […] Valproic Acid can inhibit histone deaceylases and increase γ-aminobutyric acid (GABA). […] GDNF is the […] Glial cell line-derived neurotrophic factor and can activate the GDNF pathway.
To find the set of factors that have the potential to optimize MEF2C in this experiment, a new assessment was done through dynamic profile analysis with focus on maximal expression of MEF2C (FIG. 20).

[2] = system: stage 2 neural stem cells; assay: factor criticality analysis (dynamic profile analysis) of stage 3 recipe; parameters: unit not given here; conditions: other five factors present; for expression level of DLX1 when the effector is removed: 220 with all six factors; for expression level of LHX6 when the effector is removed: 240 with all six factors; for expression level of ASCL1 when the effector is removed: 1650 with all six factors
Experimental: To assess the impact of the elimination of each validated factor, dynamic profile analysis was used and compared the expression level of genes of interest in absence of each finalized factor while others are present. […] In the stage 3 recipe, each of the six finalized factors were removed while the other five factors remained present and the expression levels of ASCL1, DLX1 and LHX6 were assessed compared to the presence of all six factors. […] As expected, in the absence of IGF-1, the value of DLX1 increases to 410, however, ASCL1 and LHX6 decreased to 1390 and 220, respectively.

[3] = system: stage 2 neural stem cells (cells treated with stage 1 and stage 2 media); assay: HD-DoE experiment for stage 3 recipe, optimized for ASCL1; conditions: for factor contribution on expression of ASCL1: positive, model optimized for maximum expression of ASCL1 at 1700, FIG. 9
Experimental: To further guide the cells to medial ganglionic eminence progenitor fate, an additional HD-DoE experiment was performed for 3 days on cells that were treated with stage 1 and stage 2 media for total of 6 days prior to start of the experiment. This experiment included 13 effectors, LDN193189, A8301, GNF5837, AZD3147, GSI-XX, Takinib, PD0325901, PD173074, BLU9931, IGF-1, MHY1485, Purmorphamine and Prostratin. In this model, we focused on maximum expression of genes expressed in neuronal progenitor cells in medial ganglionic eminence (MGE) region including ASCL1, LHX6 and DLX1 (Silberberg et al. (2016) Neuron 92:59-74). When the model was optimized for maximum expression of ASCL1 at 1700, A8301, GSI-XX, Purmorphamine and Takinib, which is an inhibitor of TAK1 pathway, had the highest factor contributions, 18.1, 14.1, 12.7 and 10.1 respectively. […]

[4] = system: forebrain-committed neural stem cells (stage 1 neural stem cells); assay: HD-DoE 12-factor experiment for stage 2 recipe, optimized for NKX2-1; conditions: model maximized for NKX2-1 / dynamic profile, FIG. 7 and 8
Experimental: To further guide the differentiation of forebrain-committed neural stem cells to ventral forebrain neural stem cells at stage 2, a HD-DoE experiment was performed for 3 days after termination of stage 1 treatment. At this time, we focused on maximum expression of NKX2-1 that is expressed in ventral forebrain region and minimum expression of PAX6 that is expressed in dorsal forebrain region. This 12-factor experiment included LDN193189, BMP7, PD0325901, MK2206, A8301, XAV939, CHIR99021, Purmorphamine, SANT-1, AGN193109, TTNPB and GSI-XX.

[5] = system: stage 4 neural stem cells; assay: HD-DoE 8-factor experiment for stage 5 recipe (Prostratin, Rosiglitazone, GSI-XX, Heparin, GW0742, N2, THI0019, GDNF), optimized for PVALB; conditions: for impact on expression of PVALB: dynamic profile analysis, FIG. 24; for factor contribution on expression of PVALB: positive, model optimized for maximum expression of PVALB, FIG. 23
Experimental: To investigate effect of other factors on differentiation of forebrain-committed neural stem cells to PVALB interneuron cells, an additional HD-DoE experiment was performed for 3 days on cells that were treated with stage 1 to stage 4 media for total of 12 days prior to start of the experiment. This experiment included eight effectors, Prostratin, Rosiglitazone, GSI-XX, Heparin, GW0742, N2, THI0019, and GDNF. In this model, we focused on maximum expression of PVALB gene expressed in PVALB (+) interneurons (Nahar et al. (2021) Front. Psych. 12:679960). When model was optimized for maximum expression of PVALB, Prostratin, GW0742, N2, and GDNF had the highest factor contributions, 13.56, 19.499, 15.9 and 8.2 respectively (FIG. 23).
So, they were excluded in the recipe.

MGE progenitor cells [6] = assay: factor criticality analysis of stage 4 recipe; conditions: FIG. 27
Experimental: (§1) To assess the impact of elimination of each validated factor, we again used dynamic profile analysis and compared the expression level of genes of interest in the absence of each finalized factor while others are present.
In the stage 4 recipe, each of five finalized factors were removed while the other four factors were present and expression levels of forebrain genes were assessed compared to the presence of all 5 factors. MEF2C was reported to determine the PVALB-precursors cell fate (Mayer et al. (2018) Nature 555:457-462). We optimize MEF2C expression at this stage. […] (FIG. 27).

[7] = system: cells after termination of stage 4 treatment; assay: HD-DoE 8-factor experiment for stage 5 recipe (JQ1, Indolactam-V, Oleic acid, BDNF, IGF-1, 2-phospho-L-Ascorbic acid, Albumax, MK2206), optimized for PVALB
Description: To further guide the differentiation of forebrain-committed neural stem cells to PVALB interneuron cells at stage 5, we performed a HD-DoE experiment for 3 days after termination of stage 4 treatment. At this time, we focused on maximum expression of PVALB that was expressed in Parvalbumin (+) interneurons and minimum expression of Somatostatin that is another type of interneurons. This 8-factor experiment included JQ1, Indolactam-V, Oleic acid, BDNF, IGF-1, 2-phospho-L-Ascorbic acid, Albumax, MK2206. […] Using dynamic profile analysis, we modified the model to achieve the maximum expression level of PVALB simultaneously and therefore 2-phospho-L-ascorbic acid, BDNF, IGF1 were included while MK2206, Albumax, and JQ1 are excluded (FIG. 22). Considering the model at different optimization settings for maximum differentiation of cells toward ventral forebrain, the recipe for stage 5 of differentiation included BDNF, IGF-1, 2-phospho-L-ascorbic acid from this HD-Doe experiment.

[8] = system: stage 4 neural stem cells; assay: factor criticality analysis of stage 5 recipe
Experimental: as §1
In the stage 5 recipe, each of seven finalized factors were removed while other factors were kept present and expression levels of PVALB and SST were assessed compared to the presence of all seven factors. […] 2-phospho-L-ascorbic acid, BDNF, IGF-1 were included in the stage 5 recipe (FIG. 28). […] Others were also found to increase the expression of somatostatin that was SST interneuron marker. So, they are excluded from the recipe and N2 was included in the stage 5 recipe (FIG. 29). […] Sodium pyruvate was included in the stage 5 recipe (FIG. 30).

[9] = dynamic profile analysis, FIG. 10
[10] = positive impact, model optimized for maximal expression of MEF2C at 453, FIG. 19

Molecule: C[C@H](NC(=O)Cc1cc(F)cc(F)c1)C(=O)N[C@@H]1C(=O)N(C)c2ccccc2-c2ccccc21 [GSI-XX]
- impact on expression of MEF2C (MGE progenitor cells [1]): negative effect
- factor contribution on expression of MEF2C (MGE progenitor cells [1]; significant negative effect, model optimized for maximal expression of MEF2C): 11.6
- expression level of DLX1 when the effector is removed [2]: 50
- expression level of LHX6 when the effector is removed [2]: 140
- expression level of ASCL1 when the effector is removed [2]: 1200
- impact on expression of ASCL1 [3, 9]: Positive impact
- impact on expression of LHX6 [3, 9]: Positive impact
- factor contribution on expression of ASCL1 [3]: 14.1 and 14
- impact on expression of NKX2-1 [4]: increase its expression level
- impact on expression of PVALB [5]: negative impact

Molecule: Cc1cc(SCc2sc(-c3ccc(C(F)(F)F)c(F)c3)nc2C)ccc1OCC(=O)O [GW0742]
- factor contribution on expression of PVALB [5]: 19.499

Molecule: O=[N+]([O-])c1ccc(Nc2nc(N3CCOCC3)nc(N3CCOCC3)n2)cc1 [MHY1458]
- factor contribution on expression of MEF2C (MGE progenitor cells [1]; [10]): 0.04
- factor contribution on expression of ASCL1 [3]: below 2
- effect on PVALB expression (MGE progenitor cells [6]): increase PVALB expression

Molecule: CC(=O)O[C@@]12C[C@@H](C)[C@@]3(O)[C@@H](C=C(CO)C[C@]4(O)C(=O)C(C)=C[C@@H]34)[C@@H]1C2(C)C [Prostratin]
- factor contribution on expression of PVALB [5]: 13.56

Molecule: CCCC[C@@H](COC(=O)N(Cc1cccs1)Cc1cccs1)NC(=O)N[C@@H](CC(=O)OC)c1ccc2c(c1)OCO2 [THI0019]
- impact on expression of PVALB [5]: negative impact

Molecule: CCCC(CCC)C(=O)O [Valproic Acid, Valproic acid]
- impact on expression of MEF2C (MGE progenitor cells [1]): positive impact
- factor contribution on expression of MEF2C (MGE progenitor cells [1]; [10]): 12
- effect on PVALB expression (MGE progenitor cells [6]): contribute to PVALB expression
- effect on somatostatin expression (MGE progenitor cells [6]): minimal increase

Molecule: Heparin
- impact on expression of PVALB [5]: negative impact

Molecule: IGF-1: insulin-like growth factor 1, growth factor, IGF1 pathway agonist
- impact on expression of MEF2C (MGE progenitor cells [1]): negative impact
- expression level of DLX1 when the effector is removed [2]: 410
- expression level of LHX6 when the effector is removed [2]: 220
- expression level of ASCL1 when the effector is removed [2]: 1390
- factor contribution on expression of PVALB ([7]; important input for maximum expression of PVALB, FIG. 21): 12.8
- impact on expression of PVALB ([7]; model maximized for PVALB / dynamic profile, FIG. 21 and 22): increase its expression level; also recorded: positive impact
- impact on expression of ASCL1 [3, 9]: positive effect
- impact on expression of DLX1 [3, 9]: negative impact
- impact on expression of LHX6 [3, 9]: positive effect
- factor contribution on expression of ASCL1 [3]: 7
- effect on expression of somatostatin ([8]; FIG. 28): did not change
- contribution to expression of PVALB (Parvalbumin) ([8]; FIG. 28-30): positive contribution

Molecule: Substance P: 11 amino acid neuropeptide, member of the tachykinin neuropeptide family (RPKPQQFFGLM; ends and bridges not checked; UniProt P20366 58-68, looked up)
- impact on expression of MEF2C (MGE progenitor cells [1]): positive impact
- factor contribution on expression of MEF2C (MGE progenitor cells [1]; [10]): 9
- effect on MEF2C expression (MGE progenitor cells [6]): increase
- effect on somatostatin expression (MGE progenitor cells [6]): decrease

B1: GDNF: Glial cell line-derived neurotrophic factor, activates the GDNF pathway (protein, UniProt P39905 78-211, looked up)
Glial cell line-derived …: SPDKQMAVLPRRERNRQAAAANPENSRGKGRRGQRGKNRGCVLTAIHLNVTDLGLGYETKEELIFRYCSGSCDAAETTYDKILKNLSRNRRLVSDKVGQACCRPIAFDDDLSFLDDNLVYHILRKHSAKRCGCI
- impact on expression of MEF2C (MGE progenitor cells [1]): positive impact
- factor contribution on expression of MEF2C (MGE progenitor cells [1]; [10]): 5
- effect on PVALB expression (MGE progenitor cells [6]): contribute to PVALB expression
- effect on somatostatin expression (MGE progenitor cells [6]): minimal increase
- factor contribution on expression of PVALB [5]: 8.2
